Reference: patent US9981975B2, “Pyrrolotriazine compounds as tam inhibitors” (Incyte Corporation, priority 2016, dated 2018)

Tests used:
Type in all cases: biochemical
c-Mer = c-Mer (Homo sapiens (Human), UniProt Q12866); assay: TAM Enzymatic Assay (HTRF), Mer; settings: 60 min, room temperature
Procedure: The kinase assay buffer contained 50 mM HEPES, pH7.5, 10 mM MgCl2, 1 mM EGTA, 0.01% NP-40 and 2 mM DTT. 0.1 ul test compounds dissolved in DMSO were transferred from compound plates to white 384-well assay plates (Greiner […] plates). […] 4 ul enzyme solution (or assay buffer for the enzyme blank) was added to the appropriate wells in each plate, and then 4 ul/well substrate solution was added to initiate the reaction. The plate was protected from light and incubated at room temperature for 60 min. […] The plate was incubated for 1 h at room temperature, and HTRF (homogenous time resolved fluorescence) signal was measured on a PHERAstar FS plate reader (BMG labtech). Percentage of inhibition was calculated for each concentration and IC50 value was generated from curve fitting with GraphPad Prism software.

phosphor-Axl = phosphor-Axl (Homo sapiens (Human), UniProt P30530); assay: TAM Enzymatic Assay (HTRF), Axl; settings: recombinant autophosphorylated Axl, 60 min, room temperature
Sequence of phosphor-Axl (P30530 26-894): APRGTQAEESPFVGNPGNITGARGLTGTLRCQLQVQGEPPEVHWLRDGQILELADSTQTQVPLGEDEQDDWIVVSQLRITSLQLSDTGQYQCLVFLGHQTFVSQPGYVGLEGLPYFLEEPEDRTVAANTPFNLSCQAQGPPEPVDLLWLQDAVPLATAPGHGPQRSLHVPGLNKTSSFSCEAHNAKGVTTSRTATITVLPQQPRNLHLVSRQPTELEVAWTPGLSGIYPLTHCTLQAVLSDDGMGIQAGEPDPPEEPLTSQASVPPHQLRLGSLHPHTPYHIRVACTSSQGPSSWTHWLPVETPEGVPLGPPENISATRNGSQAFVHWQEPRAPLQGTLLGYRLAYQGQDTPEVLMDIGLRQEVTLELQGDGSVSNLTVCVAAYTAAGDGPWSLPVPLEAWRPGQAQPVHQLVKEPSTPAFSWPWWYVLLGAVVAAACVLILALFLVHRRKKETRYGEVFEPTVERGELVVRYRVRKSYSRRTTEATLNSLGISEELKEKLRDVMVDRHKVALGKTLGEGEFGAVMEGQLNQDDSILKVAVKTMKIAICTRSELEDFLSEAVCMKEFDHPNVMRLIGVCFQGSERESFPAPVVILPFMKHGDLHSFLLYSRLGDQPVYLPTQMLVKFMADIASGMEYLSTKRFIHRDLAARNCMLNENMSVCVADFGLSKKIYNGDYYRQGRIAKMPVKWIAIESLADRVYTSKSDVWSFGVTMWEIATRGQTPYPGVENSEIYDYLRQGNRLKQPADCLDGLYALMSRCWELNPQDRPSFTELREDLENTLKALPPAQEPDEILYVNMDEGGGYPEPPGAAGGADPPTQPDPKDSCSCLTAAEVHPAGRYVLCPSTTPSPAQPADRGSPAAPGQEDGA

Tyro3 = Tyro3 (Homo sapiens (Human), UniProt Q06418); assay: TAM Enzymatic Assay (HTRF), Tyro3; settings: Tyro3, 60 min, room temperature
Sequence of Tyro3 (Q06418 41-890): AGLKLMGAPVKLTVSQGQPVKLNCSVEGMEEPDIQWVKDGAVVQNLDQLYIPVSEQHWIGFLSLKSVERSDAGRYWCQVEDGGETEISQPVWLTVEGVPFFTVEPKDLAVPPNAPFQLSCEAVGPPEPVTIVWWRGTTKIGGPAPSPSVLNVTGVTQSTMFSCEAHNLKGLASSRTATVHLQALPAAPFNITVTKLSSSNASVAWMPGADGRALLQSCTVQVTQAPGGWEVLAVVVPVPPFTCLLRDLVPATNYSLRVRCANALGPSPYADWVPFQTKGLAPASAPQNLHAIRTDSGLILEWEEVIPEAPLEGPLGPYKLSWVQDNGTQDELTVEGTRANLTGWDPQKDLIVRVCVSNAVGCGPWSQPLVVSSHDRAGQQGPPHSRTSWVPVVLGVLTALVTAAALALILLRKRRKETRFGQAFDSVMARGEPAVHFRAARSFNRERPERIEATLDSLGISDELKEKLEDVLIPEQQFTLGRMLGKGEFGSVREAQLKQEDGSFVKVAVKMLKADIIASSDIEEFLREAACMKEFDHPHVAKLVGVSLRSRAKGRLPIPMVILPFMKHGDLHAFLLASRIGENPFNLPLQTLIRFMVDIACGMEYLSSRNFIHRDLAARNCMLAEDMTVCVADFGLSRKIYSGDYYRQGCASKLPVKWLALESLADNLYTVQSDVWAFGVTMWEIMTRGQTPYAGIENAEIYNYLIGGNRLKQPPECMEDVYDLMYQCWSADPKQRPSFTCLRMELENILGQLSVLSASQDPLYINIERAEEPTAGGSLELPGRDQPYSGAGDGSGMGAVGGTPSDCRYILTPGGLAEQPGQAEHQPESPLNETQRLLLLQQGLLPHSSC
How it was run: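 HTRF kinase assay in 50 mM HEPES pH 7.5, 10 mM MgCl2, 1 mM EGTA, 0.01% NP-40, 2 mM DTT; compound in DMSO pre-dispensed, enzyme added, reaction started with substrate, 60 min at room temperature in the dark.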

Sequence of c-Mer (Q12866 21-999): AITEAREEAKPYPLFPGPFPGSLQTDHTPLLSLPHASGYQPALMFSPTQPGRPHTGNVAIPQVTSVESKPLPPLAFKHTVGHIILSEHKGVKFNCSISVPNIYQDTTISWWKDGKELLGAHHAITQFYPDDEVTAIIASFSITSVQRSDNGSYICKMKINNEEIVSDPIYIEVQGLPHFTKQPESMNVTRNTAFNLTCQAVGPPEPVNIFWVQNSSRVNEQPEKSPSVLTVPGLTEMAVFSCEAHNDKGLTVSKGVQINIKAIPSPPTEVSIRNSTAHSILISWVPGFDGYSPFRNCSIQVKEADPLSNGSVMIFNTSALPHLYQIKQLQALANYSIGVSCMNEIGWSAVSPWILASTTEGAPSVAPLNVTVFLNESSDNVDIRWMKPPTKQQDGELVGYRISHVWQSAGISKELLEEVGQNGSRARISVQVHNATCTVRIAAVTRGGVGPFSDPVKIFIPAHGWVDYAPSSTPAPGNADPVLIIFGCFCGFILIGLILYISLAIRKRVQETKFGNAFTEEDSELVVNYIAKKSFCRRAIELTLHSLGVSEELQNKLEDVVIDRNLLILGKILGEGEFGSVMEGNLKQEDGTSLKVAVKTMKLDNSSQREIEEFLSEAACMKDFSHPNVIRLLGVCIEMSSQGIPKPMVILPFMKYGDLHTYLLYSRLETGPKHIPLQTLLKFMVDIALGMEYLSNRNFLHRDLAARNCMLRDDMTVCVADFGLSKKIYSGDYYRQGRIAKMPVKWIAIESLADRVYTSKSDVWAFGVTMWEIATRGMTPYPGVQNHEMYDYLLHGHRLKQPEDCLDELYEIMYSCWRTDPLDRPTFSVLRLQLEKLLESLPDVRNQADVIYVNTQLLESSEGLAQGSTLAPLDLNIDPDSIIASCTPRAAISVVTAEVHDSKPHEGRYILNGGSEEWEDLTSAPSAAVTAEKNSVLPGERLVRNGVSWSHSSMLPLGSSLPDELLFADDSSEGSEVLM

Structure (SMILES) | IC50 (c-Mer) | IC50 (phosphor-Axl) | IC50 (Tyro3)
CC(=O)N1CCC(c2cc(-c3ccc(NC(=O)c4cccn(-c5ccccc5)c4=O)cc3F)c3c(N)ncnn23)CC1 [Example 26, N-{4-[7-(1-Acetylpiperidin-4-yl)-4-aminopyrrolo[2,1-f][1,2,4]triazin-5-yl]-3-fluorophenyl}-2-oxo-1-phenyl-1,2-dihydropyridine-3-carboxamide] | ≤ 5 nM | ≤ 5 nM | 10 to 100 nM
CC(=O)N1CCC(c2cc(-c3ccc(NC(=O)c4cccn(-c5ccc(F)cc5)c4=O)cc3F)c3c(N)ncnn23)CC1 [Example 27, N-{4-[7-(1-Acetylpiperidin-4-yl)-4-aminopyrrolo[2,1-f][1,2,4]triazin-5-yl]-3-fluorophenyl}-1-(4-fluorophenyl)-2-oxo-1,2-dihydropyridine-3-carboxamide] | ≤ 5 nM | ≤ 5 nM | 10 to 100 nM
N#C[C@H]1CC[C@@H](c2cc(-c3ccc(NC(=O)c4cccn(-c5ccccc5)c4=O)cc3)c3c(N)ncnn32)CC1 [Example 28, N-{4-[4-Amino-7-(cis-4-cyanocyclohexyl)pyrrolo[2,1-f][1,2,4]triazin-5-yl]phenyl}-2-oxo-1-phenyl-1,2-dihydropyridine-3-carboxamide] | ≤ 5 nM | ≤ 5 nM | > 100 nM
N#C[C@H]1CC[C@@H](c2cc(-c3ccc(NC(=O)c4cccn(-c5ccc(F)cc5)c4=O)cc3)c3c(N)ncnn32)CC1 [Example 29, N-{4-[4-Amino-7-(cis-4-cyanocyclohexyl)pyrrolo[2,1-f][1,2,4]triazin-5-yl]phenyl}-1-(4-fluorophenyl)-2-oxo-1,2-dihydropyridine-3-carboxamide] | ≤ 5 nM | ≤ 5 nM | 10 to 100 nM
N#C[C@H]1CC[C@@H](c2cc(-c3ccc(NC(=O)c4cccn(-c5ccccc5)c4=O)cc3F)c3c(N)ncnn32)CC1 [Example 30, N-{4-[4-Amino-7-(cis-4-cyanocyclohexyl)pyrrolo[2,1-f][1,2,4]triazin-5-yl]-3-fluorophenyl}-2-oxo-1-phenyl-1,2-dihydropyridine-3-carboxamide] | ≤ 5 nM | ≤ 5 nM | 10 to 100 nM
Nc1ncnn2c(C3CCNCC3)cc(-c3ccc(NC(=O)c4cccn(-c5ccccc5)c4=O)cc3)c12 [Example 32, N-[4-(4-Amino-7-piperidin-4-ylpyrrolo[2,1-f][1,2,4]triazin-5-yl)phenyl]-2-oxo-1-phenyl-1,2-dihydropyridine-3-carboxamide] | ≤ 5 nM | ≤ 5 nM | 10 to 100 nM
Nc1ncnn2c(C3CCNCC3)cc(-c3ccc(NC(=O)c4cccn(-c5ccc(F)cc5)c4=O)cc3)c12 [Example 33, N-[4-(4-Amino-7-piperidin-4-ylpyrrolo[2,1-f][1,2,4]triazin-5-yl)phenyl]-1-(4-fluorophenyl)-2-oxo-1,2-dihydropyridine-3-carboxamide] | ≤ 5 nM | ≤ 5 nM | 10 to 100 nM
Nc1ncnn2c(C3CCNCC3)cc(-c3ccc(NC(=O)c4cccn(-c5ccccc5)c4=O)cc3F)c12 [Example 34, N-[4-(4-Amino-7-piperidin-4-ylpyrrolo[2,1-f][1,2,4]triazin-5-yl)-3-fluorophenyl]-2-oxo-1-phenyl-1,2-dihydropyridine-3-carboxamide] | ≤ 5 nM | ≤ 5 nM | 10 to 100 nM
Nc1ncnn2c(C3CCNCC3)cc(-c3ccc(NC(=O)c4cccn(-c5ccc(F)cc5)c4=O)cc3F)c12 [Example 35, N-[4-(4-Amino-7-piperidin-4-ylpyrrolo[2,1-f][1,2,4]triazin-5-yl)-3-fluorophenyl]-1-(4-fluorophenyl)-2-oxo-1,2-dihydropyridine-3-carboxamide] | ≤ 5 nM | ≤ 5 nM | 5 to 10 nM
COC(=O)N1CCC(c2cc(-c3ccc(NC(=O)c4cccn(-c5ccc(F)cc5)c4=O)cc3)c3c(N)ncnn23)CC1 [Example 37, Methyl 4-{4-amino-5-[4-({[1-(4-fluorophenyl)-2-oxo-1,2-dihydropyridin-3-yl]carbonyl}amino)phenyl]pyrrolo[2,1-f][1,2,4]triazin-7-yl}piperidine-1-carboxylate] | ≤ 5 nM | ≤ 5 nM | 10 to 100 nM
COC(=O)N1CCC(c2cc(-c3ccc(NC(=O)c4cccn(-c5ccccc5)c4=O)cc3F)c3c(N)ncnn23)CC1 [Example 38, Methyl 4-[4-amino-5-(2-fluoro-4-{[(2-oxo-1-phenyl-1,2-dihydropyridin-3-yl)carbonyl]amino}phenyl)pyrrolo[2,1-f][1,2,4]triazin-7-yl]piperidine-1-carboxylate] | ≤ 5 nM | ≤ 5 nM | 10 to 100 nM
COC(=O)N1CCC(c2cc(-c3ccc(NC(=O)c4cccn(-c5ccc(F)cc5)c4=O)cc3F)c3c(N)ncnn23)CC1 [Example 39, Methyl 4-{4-amino-5-[2-fluoro-4-({[1-(4-fluorophenyl)-2-oxo-1,2-dihydropyridin-3-yl]carbonyl}amino)phenyl]pyrrolo[2,1-f][1,2,4]triazin-7-yl}piperidine-1-carboxylate] | ≤ 5 nM | ≤ 5 nM | 10 to 100 nM
CS(=O)(=O)N1CCC(c2cc(-c3ccc(NC(=O)c4cccn(-c5ccc(F)cc5)c4=O)cc3)c3c(N)ncnn23)CC1 [Example 41, N-(4-{4-Amino-7-[1-(methylsulfonyl)piperidin-4-yl]pyrrolo[2,1-f][1,2,4]triazin-5-yl}phenyl)-1-(4-fluorophenyl)-2-oxo-1,2-dihydropyridine-3-carboxamide] | ≤ 5 nM | ≤ 5 nM | 10 to 100 nM
CS(=O)(=O)N1CCC(c2cc(-c3ccc(NC(=O)c4cccn(-c5ccccc5)c4=O)cc3F)c3c(N)ncnn23)CC1 [Example 42] | ≤ 5 nM | ≤ 5 nM | 10 to 100 nM
CS(=O)(=O)N1CCC(c2cc(-c3ccc(NC(=O)c4cccn(-c5ccc(F)cc5)c4=O)cc3F)c3c(N)ncnn23)CC1 [Example 43] | ≤ 5 nM | ≤ 5 nM | 10 to 100 nM
CN(C)C(=O)N1CCC(c2cc(-c3ccc(NC(=O)c4cccn(-c5ccccc5)c4=O)cc3)c3c(N)ncnn23)CC1 [Example 44, N-[4-(4-Amino-7-{1-[(dimethylamino)carbonyl]piperidin-4-yl}pyrrolo[2,1-f][1,2,4]triazin-5-yl)phenyl]-2-oxo-1-phenyl-1,2-dihydropyridine-3-carboxamide] | ≤ 5 nM | ≤ 5 nM | > 100 nM
CN(C)C(=O)N1CCC(c2cc(-c3ccc(NC(=O)c4cccn(-c5ccc(F)cc5)c4=O)cc3)c3c(N)ncnn23)CC1 [Example 45, N-[4-(4-Amino-7-{1-[(dimethylamino)carbonyl]piperidin-4-yl}pyrrolo[2,1-f][1,2,4]triazin-5-yl)phenyl]-1-(4-fluorophenyl)-2-oxo-1,2-dihydropyridine-3-carboxamide] | ≤ 5 nM | ≤ 5 nM | 10 to 100 nM
CN(C)C(=O)N1CCC(c2cc(-c3ccc(NC(=O)c4cccn(-c5ccccc5)c4=O)cc3F)c3c(N)ncnn23)CC1 [Example 46, N-[4-(4-Amino-7-{1-[(dimethylamino)carbonyl]piperidin-4-yl}pyrrolo[2,1-f][1,2,4]triazin-5-yl)-3-fluorophenyl]-2-oxo-1-phenyl-1,2-dihydropyridine-3-carboxamide] | ≤ 5 nM | ≤ 5 nM | 10 to 100 nM
CN(C)C(=O)N1CCC(c2cc(-c3ccc(NC(=O)c4cccn(-c5ccc(F)cc5)c4=O)cc3F)c3c(N)ncnn23)CC1 [Example 47, N-[4-(4-Amino-7-{1-[(dimethylamino)carbonyl]piperidin-4-yl}pyrrolo[2,1-f][1,2,4]triazin-5-yl)-3-fluorophenyl]-1-(4-fluorophenyl)-2-oxo-1,2-dihydropyridine-3-carboxamide] | ≤ 5 nM | ≤ 5 nM | 10 to 100 nM
COCCN1CCC(c2cc(-c3ccc(NC(=O)c4cccn(-c5ccc(F)cc5)c4=O)cc3)c3c(N)ncnn23)CC1 [Example 49, N-(4-{4-Amino-7-[1-(2-methoxyethyl)piperidin-4-yl]pyrrolo[2,1-f][1,2,4]triazin-5-yl}phenyl)-1-(4-fluorophenyl)-2-oxo-1,2-dihydropyridine-3-carboxamide] | ≤ 5 nM | ≤ 5 nM | 10 to 100 nM
COCCN1CCC(c2cc(-c3ccc(NC(=O)c4cccn(-c5ccccc5)c4=O)cc3F)c3c(N)ncnn23)CC1 [Example 50, N-(4-{4-Amino-7-[1-(2-methoxyethyl)piperidin-4-yl]pyrrolo[2,1-f][1,2,4]triazin-5-yl}-3-fluorophenyl)-2-oxo-1-phenyl-1,2-dihydropyridine-3-carboxamide] | ≤ 5 nM | ≤ 5 nM | 10 to 100 nM
COCCN1CCC(c2cc(-c3ccc(NC(=O)c4cccn(-c5ccc(F)cc5)c4=O)cc3F)c3c(N)ncnn23)CC1 [Example 51, N-(4-{4-Amino-7-[1-(2-methoxyethyl)piperidin-4-yl]pyrrolo[2,1-f][1,2,4]triazin-5-yl}-3-fluorophenyl)-1-(4-fluorophenyl)-2-oxo-1,2-dihydropyridine-3-carboxamide] | ≤ 5 nM | ≤ 5 nM | 5 to 10 nM
